Laboratory results as given in paper PMC11983575, “Study on the synthesis and biological activity of kojic acid triazol thiosemicarbazide Schiff base derivatives” (Journal of Enzyme Inhibition and Medicinal Chemistry, 2025).

How the values were obtained:
[1] = DPPH free radical scavenging activity assay; details: DPPH 150 μM, 30 min, 517 nm; read-out: DPPH/IC50 (μM) ± SD
Protocol: The anti-oxidation effect on DPPH radical was determined by a slightly modified version of a previously described DPPH radical scavenging assay. Reaction mixtures consisted of 100 μl of DPPH (150 μM), 20 μl of increasing concentration of test compounds and the volume was adjusted to 200 μl in each well with DMSO. The assay solution was then incubated at room temperature (25 °C) for 30 min in the dark. After the incubation, absorbance at 517 nm was measured by using UV-2600 spectrophotometer. The experiments were undertaken in triplicate. DMSO was used as a control. Ascorbic acid was used as antioxidant standard for comparison of the activity. The calculation of DPPH radical scavenging activity was followed by this formula: DPPH radical scavenging activity %=absorbance of standard−absorbance of sample/Absorbance of standard×100

[2] = ABTS radical cation scavenging activity assay; details: 734 nm; read-out: ABTS+/IC50 (μM) ± SD
Protocol: ABTS free radical scavenging activity was performed according to the procedure described by Zhang et al.[40] Test solution of ABTS decolourisation assay was prepared by mixing 2.45 mM potassium persulfate and 7 mM ABTS at 8:12 volume/volume ratio. The working solution was kept in the dark at room temperature for 12–18 h. Before ABTS radical scavenging test, the ABTS test solution was diluted with DMSO to absorbance of 0.7 (±0.02) at 734 nm. One millilitre of diluted ABTS test solution was added to 10 μl of DMSO or test sample. After initial mixing, the working solution was kept in the dark at room temperature for 2–6 min, and the absorbance was measured at 734 nm. This test was carried out in triplicate. DMSO was used as a control. Ascorbic acid was used as antioxidant standard for comparison of the activity. The absorbance of test samples was calculated by the following formula. ABTS scavenging ability %=absorbance of standard−absorbance of sample/absorbance of standard×100.

| SMILES | IC50 [1] [µM] | IC50 [2] [µM] |
| --- | --- | --- |
| NC(=S)NN=Cc1ccccc1OCc1cn(Cc2cc(=O)c(O)co2)nn1 [Compound 6a, (2-((1-((5-Hydroxy-4-oxo-4H-pyran-2-yl)methyl)-1H-1,2,3-triazol-4-yl)methoxy)benzylidene)hydrazinecarbothioamide] | 173.2 ± 0.058 | 43.89 ± 0.034 |
| NC(=S)NN=Cc1ccc(F)cc1OCc1cn(Cc2cc(=O)c(O)co2)nn1 [Compound 6b, 2-(4-Fluoro-2-((1-((5-hydroxy-4-oxo-4H-pyran-2-yl)methyl)-1H-1,2,3-triazol-4-yl)methoxy)benzylidene)hydrazinecarbothioamide] | 105.4 ± 0.115 | 63.1 ± 0.042 |
| NC(=S)NN=Cc1ccc(Cl)cc1OCc1cn(Cc2cc(=O)c(O)co2)nn1 [Compound 6c, 2-(4-Chloro-2-((1-((5-hydroxy-4-oxo-4H-pyran-2-yl)methyl)-1H-1,2,3-triazol-4-yl)methoxy)benzylidene)hydrazinecarbothioamide] | 104.7 ± 0.088 | 72.03 ± 0.084 |
| NC(=S)NN=Cc1ccc(Br)cc1OCc1cn(Cc2cc(=O)c(O)co2)nn1 [Compound 6d, 2-(4-Bromo-2-((1-((5-hydroxy-4-oxo-4H-pyran-2-yl)methyl)-1H-1,2,3-triazol-4-yl)methoxy)benzylidene)hydrazinecarbothioamide] | 71.43 ± 0.036 | 91.1 ± 0.033 |
| COc1ccc(C=NNC(N)=S)c(OCc2cn(Cc3cc(=O)c(O)co3)nn2)c1 [Compound 6e, 2-(2-((1-((5-Hydroxy-4-oxo-4H-pyran-2-yl)methyl)-1H-1,2,3-triazol-4-yl)methoxy)-4-methoxybenzylidene)hydrazinecarbothioamide] | 87.47 ± 0.144 | 8.24 ± 0.048 |
| Cc1ccc(C=NNC(N)=S)c(OCc2cn(Cc3cc(=O)c(O)co3)nn2)c1 [Compound 6f, 2-(2-((1-((5-Hydroxy-4-oxo-4H-pyran-2-yl)methyl)-1H-1,2,3-triazol-4-yl)methoxy)-4-methylbenzylidene)hydrazinecarbothioamide] | 99.6 ± 0.056 | 34.95 ± 0.061 |
| NC(=S)NN=Cc1cc(Cl)ccc1OCc1cn(Cc2cc(=O)c(O)co2)nn1 [Compound 6g, 2-(5-Chloro-2-((1-((5-hydroxy-4-oxo-4H-pyran-2-yl)methyl)-1H-1,2,3-triazol-4-yl)methoxy)benzylidene)hydrazinecarbothioamide] | 133.8 ± 0.048 | 52.65 ± 0.109 |
| NC(=S)NN=Cc1cc(Br)ccc1OCc1cn(Cc2cc(=O)c(O)co2)nn1 [Compound 6h, 2-(5-Bromo-2-((1-((5-hydroxy-4-oxo-4H-pyran-2-yl)methyl)-1H-1,2,3-triazol-4-yl)methoxy)benzylidene)hydrazinecarbothioamide] | 118.4 ± 0.049 | 68.49 ± 0.091 |
| Cc1ccc(OCc2cn(Cc3cc(=O)c(O)co3)nn2)c(C=NNC(N)=S)c1 [Compound 6i, 2-(2-((1-((5-Hydroxy-4-oxo-4H-pyran-2-yl)methyl)-1H-1,2,3-triazol-4-yl)methoxy)-5-methylbenzylidene)hydrazinecarbothioamide] | 248.1 ± 0.041 | 61.66 ± 0.091 |
| CC(=NNC(N)=S)c1ccc(Br)cc1OCc1cn(Cc2cc(=O)c(O)co2)nn1 [Compound 6s, 2-(1-(4-Bromo-2-((1-((5-hydroxy-4-oxo-4H-pyran-2-yl)methyl)-1H-1,2,3-triazol-4-yl)methoxy)phenyl)ethylidene)hydrazinecarbothioamide] | 105.8 ± 0.092 | 11.29 ± 0.033 |
| COc1ccc(C(C)=NNC(N)=S)c(OCc2cn(Cc3cc(=O)c(O)co3)nn2)c1 [Compound 6t, 2-(1-(2-((1-((5-Hydroxy-4-oxo-4H-pyran-2-yl)methyl)-1H-1,2,3-triazol-4-yl)methoxy)-4-methoxyphenyl)ethylidene)hydrazinecarbothioamide] | 86.3 ± 0.058 | 3.91 ± 0.064 |

Stronger by IC50 [1], values ahead:

| IC50 [1] [µM] | IC50 [2] [µM] | SMILES |
| --- | --- | --- |
| 25.6 ± 0.031 | 6.78 ± 0.082 | CCOc1cccc(C=NNC(N)=S)c1OCc1cn(Cc2cc(=O)c(O)co2)nn1 [Compound 6j, 2-(3-Ethoxy-2-((1-((5-hydroxy-4-oxo-4H-pyran-2-yl)methyl)-1H-1,2,3-triazol-4-yl)methoxy)benzylidene)hydrazinecarbothioamide] |
| 49.17 ± 0.077 | 9.31 ± 0.022 | CC(C)(C)c1cccc(C=NNC(N)=S)c1OCc1cn(Cc2cc(=O)c(O)co2)nn1 [Compound 6k, 2-(3-(Tert-butyl)-2-((1-((5-hydroxy-4-oxo-4H-pyran-2-yl)methyl)-1H-1,2,3-triazol-4-yl)methoxy)benzylidene)hydrazinecarbothioamide] |
| 10.53 ± 0.014 | 3.19 ± 0.034 | CC(=NNC(N)=S)c1ccccc1OCc1cn(Cc2cc(=O)c(O)co2)nn1 [Compound 6p, 2-(1-(2-((1-((5-Hydroxy-4-oxo-4H-pyran-2-yl)methyl)-1H-1,2,3-triazol-4-yl)methoxy)phenyl)ethylidene)hydrazinecarbothioamide] |
| 47.05 ± 0.042 | 6.61 ± 0.054 | CC(=NNC(N)=S)c1ccc(F)cc1OCc1cn(Cc2cc(=O)c(O)co2)nn1 [Compound 6q, 2-(1-(4-Fluoro-2-((1-((5-hydroxy-4-oxo-4H-pyran-2-yl)methyl)-1H-1,2,3-triazol-4-yl)methoxy)phenyl)ethylidene)hydrazinecarbothioamide] |
| 53.54 ± 0.088 | 4.49 ± 0.103 | CC(=NNC(N)=S)c1ccc(Cl)cc1OCc1cn(Cc2cc(=O)c(O)co2)nn1 [Compound 6r, 2-(1-(4-Chloro-2-((1-((5-hydroxy-4-oxo-4H-pyran-2-yl)methyl)-1H-1,2,3-triazol-4-yl)methoxy)phenyl)ethylidene)hydrazinecarbothioamide] |
| 55.7 ± 0.154 | 5.27 ± 0.078 | CC(=NNC(N)=S)c1ccc(C)cc1OCc1cn(Cc2cc(=O)c(O)co2)nn1 [Compound 6u, 2-(1-(2-((1-((5-Hydroxy-4-oxo-4H-pyran-2-yl)methyl)-1H-1,2,3-triazol-4-yl)methoxy)-4-methylphenyl)ethylidene)hydrazinecarbothioamide] |
| 16.27 ± 0.093 | 3.2 ± 0.091 | CC(=NNC(N)=S)c1cccc(OCc2cn(Cc3cc(=O)c(O)co3)nn2)c1 [Compound 6v, 2-(1-(3-((1-((5-Hydroxy-4-oxo-4H-pyran-2-yl)methyl)-1H-1,2,3-triazol-4-yl)methoxy)phenyl)ethylidene)hydrazinecarbothioamide] |
| 27.25 ± 0.015 | 55.48 ± 0.04 | O=C1O[C@H]([C@@H](O)CO)C(O)=C1O [Vitamin C, Ascorbic acid, reference compound] |
